Assay results reported in US20020037885A1, “Therapeutic compounds” (priority 1999, published 2002).

Experiments:
Ih channel = conditions: cited from earlier work
[1] = tested on: marble burying behaviour in mice; assay: Mouse Marble Burying Assay (BUR); assay type: in vivo; conditions: Mus musculus, sc; Table 3; read-out: BUR s.c. ED50
Description: This assay was carried out essentially according to the procedure described by Treit et al. (1981) Pharmacol Biochem Behav; 15; 619-626.
The results are presented as BUR ED50 (sc). This is the effective dose causing 50% inhibition of burying compared to control mice.

[2] = tested on: hyperpolarisation-activated inward cation current Ih in dorsal root ganglion (DRG) cells; assay: Inhibition of hyperpolarisation-activated cation current (Ih), whole cell voltage clamp on cultured DRG cells; assay type: cell-based, rat; conditions: at 1E-5 M

**Q.** With `CCN(c1ccccc1)c1cc(NC)[n+](C)c(C)n1` [ZD7288, 4-(N-ethyl-N-phenylamino)-1,2-dimethyl-6-(methyiamino)-pyrimidinium-chloride] as the compound, how does the IC50 (Ih channel; Harris and Constanti 1995, read-out: IC50 for blocking Ih) read?
**A.** 2 µM

**Q.** For `[Cs]` [caesium], which “concentration blocking Ih” value (Ih channel; Pape 1996) is on record?
**A.** 1 to 5 mM

**Q.** For `[Ba]` [barium], which “block of the Ih channel” value (Ih channel; 1 mM barium (Ba2+)) is on record?
**A.** not blocked

**Q.** What does the source list for `C=CCC(N)c1ccccc1-c1noc2ncccc12.O=C(O)/C=C\C(=O)O` (stereo not drawn) [16 (5), 2-(isoxazolo[5,4-b]pyridin-3-yl)-α-2-propenyl-benzenemethanamine (Z)-butenedioate]?
**A.** melting point: 187 to 188 °C (dec.); ED50 [1]: 1.7 mg/kg; Ih amplitude, inhibition [2]: 90% inhibition at 1E-5
